This is an account of results in patent US20260240836A1, “ENHANCER OF PHYSIOLOGICAL ACTIVITY OF HEPATOCYTE GROWTH FACTOR” (KYOWA HAKKO BIO CO., LTD., priority 2023, published 2026).

For test [1], the system named is muscle stem cells (satellite cells). Nature of the test: Muscle stem cell (satellite cell) activation by HGF, BrdU pulse labeling. Particulars: for Percentage of BrdU-positive cells (%): NC 46.9; for percentage of BrdU-positive cells / enhancing effect on muscle stem cell activation by HGF: HGF 3 ng/ml; for percentage of BrdU-positive cells: trisulfide at 4000 or 8000 moles per 1 mole HGF, vs. NC, p<0.05; for enhancing effect on muscle stem cell activation by HGF: trisulfide at 8000 moles per 1 mole HGF. It counts as cell-based, rat. The protocol: The effect of the addition of GSSSG or LA-SSS on the muscle stem cell activation effect of HGF (3 ng/ml) was examined by the following method. GSSSG or LA-SSS was added to recombinant HGF (R&D Systems) at a molar ratio of 1:4000 (HGF:GSSSG or HGF:LA-SSS) (FIG. 2(A)) or 1:8000 (HGF:GSSSG or HGF:LA-SSS) (FIG. 2(B)). The activation effect of HGF was measured using a culture system of muscle stem cells (satellite cells). Quiescent muscle stem cells were isolated from the skeletal muscle of 8-9-month-old mature rats in accordance with a modified method of Allen et al. (1997) (Tatsumi et al. 2006), and cultured for 24 hours in DMEM containing 10% normal horse serum (DMEM-10% HS, pH 7.2). HGF mixed with GSSSG or LA-SSS was added to a final concentration of 3 ng/ml, and after further culture for 24 hours, the activation rate of muscle stem cells was measured by the bromodeoxyuridine (BrdU) pulse labeling method. Cells that had incorporated BrdU were visualized with an anti-BrdU monoclonal antibody, and the percentage of positive cells was used as an indicator of muscle stem cell activation (Tatsumi et al. 1998).
In FIG. 2, NC: negative control (no addition), PC: positive control (HGF only addition), A′: addition of GSSSG and HGF (3 ng/ml), A: addition of GSSSG, B′: addition of LA-SSS and HGF (3 ng/ml), B: addition of LA-SSS.
The effect of the addition of GSSSG or LA-SSS on the muscle stem cell activation effect of HGF (1 ng/ml) was examined in the same manner as in Example 2, except that the final concentration of HGF was 1 ng/ml instead of 3 ng/ml.
In Table 3 and FIG. 4, NC: negative control (no addition), PC′: positive control (HGF (I ng/ml) only addition), A′: addition of GSSSG and HGF (I ng/ml), A: addition of GSSSG, B′: addition of LA-SSS and HGF (1 ng/ml), B: addition of LA-SSS, PC: positive control (HGF (3 ng/ml) only addition).

Test [2] addresses T1, binding between HGF and c-Met (Homo sapiens, UniProt P14210).
T1 construct: purchased R&D Systems
Nature of the test: ELISA-like HGF-c-Met binding assay on plate with immobilized recombinant c-Met. As to conditions: NC set to 1. The protocol: The effect of the addition of glutathione trisulfide (GSSSG) or lipoic acid trisulfide (LA-SSS) on the binding (affinity) between HGF and c-Met was examined by the following method. GSSSG or LA-SSS was added to recombinant HGF (R&D Systems) at a molar ratio of 1:4000 (HGF:GSSSG or HGF:LA-SSS) (FIG. 1(A)) or 1:8000 (HGF:GSSSG or HGF:LA-SSS) (FIG. 1(B)). An ELISA-like HGF-c-Met binding assay was performed using a 96-well cluster plate with immobilized recombinant c-Met (R&D Systems) (Tatsumni et al. 2002; the principle of this method is schematically shown in FIG. 1(C)). Table 2 and FIGS. 1(A) and (B) show the relative values of each experimental group, with the A450-535 nm (absorbance at 450 nm minus absorbance at 535 nm) of the negative control (NC) set to 1.
In Table 2 and FIG. 1, NC: negative control (no addition), PC: positive control (HGF only addition), PC′: addition of solvent used to dissolve GSSSG and HGF, A′: addition of solvent used to dissolve GSSSG, GSSSG, and HGF (1 ng/ml), A: addition of solvent used to dissolve GSSSG and GSSSG, PC″: addition of solvent used to dissolve LA-SSS and HGF, B′: addition of solvent used to dissolve LA-SSS, LA-SSS, and HGF (1 ng/ml), B: addition of solvent used to dissolve LA-SSS and LA-SSS.
(In general: An ELISA detects its analyte on a solid surface through an enzyme-linked reagent.)

The mark [3] stands for this setting: HGF 1 ng/ml present, trisulfide at 1:8000 molar ratio, PC′ = HGF 1 ng/ml only.
Where [4] appears, read: 1:4000 series, trisulfide and its solvent without HGF.
The mark [5] stands for this setting: 1:8000 series, trisulfide and its solvent without HGF.
Where [6] appears, read: HGF:A,B molar ratio 1:4000 series, HGF 1 ng/mL present, PC′/PC″ = HGF plus solvent only.
The mark [7] stands for this setting: HGF:A,B molar ratio 1:8000 series, HGF 1 ng/mL present, PC′/PC″ = HGF plus solvent only.

T1 sequence (P14210 32-494 limits assumed): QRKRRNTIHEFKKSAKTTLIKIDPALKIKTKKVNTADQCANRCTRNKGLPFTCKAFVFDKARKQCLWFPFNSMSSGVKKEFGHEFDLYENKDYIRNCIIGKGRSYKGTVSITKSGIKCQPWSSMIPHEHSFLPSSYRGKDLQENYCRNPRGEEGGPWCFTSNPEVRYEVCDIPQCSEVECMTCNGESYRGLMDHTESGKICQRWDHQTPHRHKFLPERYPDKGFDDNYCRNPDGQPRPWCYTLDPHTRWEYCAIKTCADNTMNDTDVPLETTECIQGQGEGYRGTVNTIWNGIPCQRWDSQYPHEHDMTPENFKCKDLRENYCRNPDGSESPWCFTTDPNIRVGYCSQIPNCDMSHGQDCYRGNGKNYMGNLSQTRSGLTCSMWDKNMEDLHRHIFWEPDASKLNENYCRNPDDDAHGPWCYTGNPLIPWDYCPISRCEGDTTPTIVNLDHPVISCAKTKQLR

Regarding `O=C(O)CCCCC1CCSSS1` (stereo not drawn) [LA-SSS, lipoic acid trisulfide], the “Percentage of BrdU-positive cells (%)” value in test [1] (setting [3]) is given as “significantly increased”; in test [1] (HGF 1 ng/ml present, trisulfide at 1:8000 molar ratio, PC′ = HGF 1 ng/ml only, listed as B′) it was 64.2%; in test [1] (trisulfide alone, without HGF), 48.8%. In test [1], the “percentage of BrdU-positive cells” value is “significantly increased”. Further, the “enhancing effect on muscle stem cell activation by HGF” value in test [1] is listed as “not observed”. The “A450-535 um (Relative units) (Average value)” value (from here on “A450-535 um (Relative units)”) in test [2] (setting [4]) was 1.28 Relative units; in test [2] (setting [5]), 1.14 Relative units; in test [2] (setting [6]), “increased”; in test [2] (HGF:A,B molar ratio 1:4000 series, HGF 1 ng/mL present, PC′/PC″ = HGF plus solvent only, listed as B') it was 9.55 Relative units; in test [2] (setting [7]) it was “significantly increased”; in test [2] (HGF:A,B molar ratio 1:8000 series, HGF 1 ng/mL present, PC′/PC″ = HGF plus solvent only, listed as B′), 19.60 Relative units.
For `N[C@@H](CCC(=O)N[C@@H](CSSSC[C@H](NC(=O)CC[C@H](N)C(=O)O)C(=O)NCC(=O)O)C(=O)NCC(=O)O)C(=O)O` [GSSSG, glutathione trisulfide], the “Percentage of BrdU-positive cells (%)” value was “increased” in test [1] (setting [3]); 57.5% in test [1] (HGF 1 ng/ml present, trisulfide at 1:8000 molar ratio, PC′ = HGF 1 ng/ml only, listed as A′); 47.5% in test [1] (trisulfide alone, without HGF). Besides, the “percentage of BrdU-positive cells” value in test [1] is given as “significantly increased”. Besides, the “enhancing effect on muscle stem cell activation by HGF” value in test [1] was “not observed”. Besides, the “A450-535 um (Relative units)” value was 1.21 Relative units in test [2] (setting [4]); 1.16 Relative units in test [2] (setting [5]); “increased” in test [2] (setting [6]); 9.67 Relative units in test [2] (HGF:A,B molar ratio 1:4000 series, HGF 1 ng/mL present, PC′/PC″ = HGF plus solvent only, listed as A′); “significantly increased” in test [2] (setting [7]); 11.22 Relative units in test [2] (HGF:A,B molar ratio 1:8000 series, HGF 1 ng/mL present, PC′/PC″ = HGF plus solvent only, listed as A′).
With “HGF: recombinant hepatocyte growth factor (R&D Systems); positive control, alone or with trisulfide solvent”, the “Percentage of BrdU-positive cells (%)” value is reported as “significantly increased” in test [1] (setting [3]); 55.3% in test [1] (HGF 1 ng/ml present, trisulfide at 1:8000 molar ratio, PC′ = HGF 1 ng/ml only, listed as PC′); 65.9% in test [1] (HGF 3 ng/ml only addition). The “A450-535 um (Relative units)” value in test [2] (HGF:A,B molar ratio 1:4000 series, HGF 1 ng/mL present, PC′/PC″ = HGF plus solvent only, listed as PC′) was 9.39 Relative units; in test [2] (HGF:A,B molar ratio 1:4000 series, HGF 1 ng/mL present, PC′/PC″ = HGF plus solvent only, listed as PC″), 9.00 Relative units; in test [2] (HGF:A,B molar ratio 1:8000 series, HGF 1 ng/mL present, PC′/PC″ = HGF plus solvent only, listed as PC′), 10.21 Relative units; in test [2] (HGF:A,B molar ratio 1:8000 series, HGF 1 ng/mL present, PC′/PC″ = HGF plus solvent only, listed as PC″) it was 10.04 Relative units; in test [2] (positive control, HGF only addition), 9.85 Relative units.
